{"source": "patent US20090176714A1", "about": "“METHOD OF REDUCING THE EFFECTS OF ABeta AND COMPOSITIONS THEREFORE” (priority 2004, published 2009)", "test_system": "human cortical slices", "assay": "Aβ-induced cell death (EthD-1/calcein AM) in human organotypic cortical cultures", "type": "cell-based", "source_text": "Four patients with intractable epilepsy who had elected to undergo a temporal lobe resection were recruited for this study. […] However, the overlying temporal cortex is normal. The age of the subjects ranged from 20 to 49. Brain tissue was obtained with informed consent from all patients.\nBrain tissue was removed in large, intact pieces by electrocautery. Tissue obtained from the temporal cortex was approximately 3 cm×2 cm×1.5-2 cm. Immediately following removal, the tissue was placed in ice-cold Neuregen-I media (Brainbits, Springfield, Ill.), a CO2 independent transport and holding medium, and transported to a tissue culture laboratory. Meninges were removed before cutting the tissue with a scalpel to produce blocks about 0.5-1 cm^3 such that each gyrus was kept as intact as possible and the cortical layers were preserved. As described previously, incisions were made perpendicular to the longitudinal axis of the gyrus and along the white matter (Verwer et al., Exp. Gerontol., 38:167-172 (2003)). A vibratome was used to cut 400 μm thick slices at a plane perpendicular to the longitudinal axis of the gyrus. Thus, all cortical layers and a small amount of white matter were included in a slice. Alternately, small tissue pieces, which were usually obtained from the hippocampus, were cut at 400 μm using a McIlwain tissue chopper. No more than 2 slices were placed on a filter insert with a 30 mm diameter and a 0.4 μm filter pore size (Millipore, Billerica, Mass.) held in 6-well culture plates. For the first 12 hours, slices were kept in 1-1.2 mL Neurobasal media with B-27 supplement, 0.5 mM glutamine, and 1% penicillin/streptomycin (Invitrogen). Subsequently, the media was changed every 2 days using 1 mL of media without antibiotics. Organotypic cultures were maintained in a humidified incubator at 37° C. in 5% O2, 5% CO2, and 90% N for 4 to 28 days.\nCell death and viability was determined on live slices using the fluorescent probes from Molecular Probes' Live/Dead Kit. After a 40 minute incubation in calcein AM (1:400) and ethidium homodimer (1:1000) in phosphate buffered saline, slices were visualized at 200× magnification with an inverted Nikon Diaphot 200 microscope using the Bio-Rad MRC-1024 Laser Scanning Confocal system (Hercules, Calif.). Random images were captured at the emission spectrum of each probe, and Scion Image software (Frederick, Md.) was used to quantify the number of live and dead cells. At least three areas were imaged and used to determine the percent death for each slice. The percent death was calculated as the number of EthD-1 positive cells divided by the total number of EthD-1 and calcein AM positive cells.\nβ-amyloid1-42 and reverse Aβ (Aβ42-1) were obtained from BACHEM (Torrance, Calif.). These peptides were dissolved in 0.1% NH3OH at 222 μM. For treatments, Aβ or reverse Aβ was aggregated at 50 μM in Neurobasal media with B-27 supplement and 0.5 mM glutamine at 37° C. for 24 hours. Then, the slice culture media was removed, and the slices were treated with 1 mL of 25 μM or 50 μM Aβ, reverse Aβ, or vehicle for 24 hour. Human TTR (Calbiochem) was added to slices together with the Aβ treatment at final concentrations of 0.03, 0.3, and 3 μM TTR. sAPPα was obtained from Sigma (St. Louis, Mo.). Unless otherwise stated, all sAPPα treatments were performed at 1 nM 48 hours prior to the addition of Aβ. The 10 amino acid fragment of the carboxyl-terminal region of sAPPα (592-601 of APP695; SEVKMDAEFR was added according to the same protocol for sAPPα. Because a variable amount of tissue was obtained from each patient, not all treatments were performed on all patients."}
{"substance": "β-amyloid1-42 [Aβ]", "values": [{"measurement": "Number of cells that have lost membrane integrity", "setting": "50 μM Aβ", "value": "dramatic increase"}, {"measurement": "Percent death", "setting": "50 μM Aβ vs 50 μM reverse Aβ, FIG. 6A", "value": "significantly increased"}]}
{"substance": "DAEF [peptide of 4 residues within the 10 residue peptide (residues 597-600)]", "values": [{"measurement": "Protection against Aβ toxicity (percent death)", "setting": "50 μM Aβ, sample from one subject, FIG. 6A", "value": "protected against 50 μM Aβ toxicity"}]}
{"substance": "SEVKMDAEFR", "values": [{"measurement": "Protection against Aβ-induced death (percent death)", "setting": "1 nM 48 hours prior to 50 μM Aβ, four subjects, FIG. 6A", "value": "significant protection"}]}
